Experiment [1] concerns IL6 production in RAW 264.7 macrophage cell line. As to the kind of experiment: Mouse IL6 quantification assay (LPS-stimulated macrophages, ELISA). Type of experiment: cell-based. To be noted: RAW264.7, RAW 264.7 murine leukemia virus transformed macrophage cell lines, LPS stimulation, read-out: IL-6 % Inhibition at 30 μM. On the technique in general: In an ELISA, binding on a coated surface is turned into a signal by an enzyme label.

Experiment [2] deals with TNFα production in RAW 264.7 macrophage cell line. As to the kind of experiment: Mouse TNF alpha quantification assay (LPS-stimulated macrophages, ELISA). Type of experiment: cell-based. The settings on record: RAW264.7, RAW 264.7 murine leukemia virus transformed macrophage cell lines, LPS stimulation, read-out: TNF-α % Inhibition at 30 μM.

For orientation: inhibition means the share of the control response that was lost under treatment. `O=C(c1csc2c(O)nc(-c3ccccn3)nc12)N1CCC(c2ccncc2)C1` (stereo not shown) [drawing 2232]: the inhibition at 30 µM in experiment [1] lay within 76 to 100%; in experiment [2], 1 to 25%.
The corresponding values for `Oc1nc(-c2ccccn2)nc2c(-c3ccc(OC4CCOCC4)cc3)csc12` [drawing 2259] are 76 to 100% and 0%.
The corresponding values for `O=C(Cn1cnc2ccccc2c1=O)Nc1nc(-c2ccccn2)cs1` [drawing 2015] are 51 to 75% and 1 to 25%.
The corresponding values for `Oc1nc(-c2ccccn2)nc2[nH]cnc12` [drawing 2122] are 76 to 100% and 76 to 100%.
`CCc1cc(NNC(=O)c2ccc(C#N)cc2)nc(-c2ccccn2)n1` [drawing 2040]: the inhibition at 30 µM in experiment [1] and in experiment [2] was 76 to 100% throughout.
Consider `Oc1nc(-c2ccccn2)nc2sc3c(c12)CCCNC3` [drawing 2245], for which the inhibition at 30 µM in experiment [1] and in experiment [2] was 1 to 25% throughout.
Consider `O=C(c1csc2c(O)nc(-c3ccccn3)nc12)N1CCN(c2cccc(F)c2)CC1` [drawing 2179], for which the inhibition at 30 µM in experiment [1] was 76 to 100%; in experiment [2], 0%.
The corresponding values for `CC(C)(C)c1nc(C(=O)Nc2nnc(-c3ccccn3)[nH]2)cs1` [drawing 1991] are 1 to 25% and 0%.
Take `COCCNc1nc(-c2nccn2C)nc2sc(-c3ccccc3)c(-c3ccc(OC)cc3)c12` [drawing 2416]: the inhibition at 30 µM in experiment [1] lay within 76 to 100%; in experiment [2], 51 to 75%.
The corresponding values for `COc1ccc(OCc2nc(CNCCc3nnc4n3CCC4)cs2)cc1` [drawing 2006] are 1 to 25% and 0%.
The corresponding values for `CC(C)COc1ccc(-c2csc3c(O)nc(-c4ccccn4)nc23)cn1` [drawing 2269] are 76 to 100% and 51 to 75%.
The corresponding values for `COC(=O)c1c(C)sc2c(O)nc(-c3ccccn3)nc12` [drawing 2311] are 76 to 100% and 1 to 25%.
As to `O=C(CN1CCN(c2nc(-c3ccccn3)nc3scc(-c4ccccc4)c23)CC1)NC1CC1` [drawing 2158], the results for the inhibition at 30 µM in experiment [1] and in experiment [2] were 76 to 100% and 26 to 50%, respectively.
The corresponding values for `COc1cnc(-c2cnc[nH]2)nc1O` [drawing 2343] are 1 to 25% and 0%.
The corresponding values for `O=C(Cn1c(=O)cnc2ccccc21)Nc1nc(-c2ccccn2)cs1` [drawing 2010] are 51 to 75% and 0%.
Regarding `c1ccc(-c2nc(NCC3CCCO3)c3ccsc3n2)nc1` (stereo not shown) [drawing 2129], the inhibition at 30 µM was 51 to 75% in experiment [1] and 1 to 25% in experiment [2].
The corresponding values for `CCOC(=O)NC1CCN(C(=O)c2csc3c(O)nc(-c4ccccn4)nc23)CC1` [drawing 2112] are 51 to 75% and 0%.
The corresponding values for `COC(=O)c1ccc(C(=O)NCC2(c3ccccc3OC)CCCC2)nc1` [drawing 2058] are 0% and 1 to 25%.
The corresponding values for `Oc1nc(-c2ccccn2)nc2c(-c3ccccc3F)csc12` [drawing 2260] are 76 to 100% and 51 to 75%.
As to `COc1ccc(N2CCN(C(=O)c3csc4c(O)nc(-c5ccccn5)nc34)CC2)c(OC)c1` [drawing 2184], the inhibition at 30 µM was 76 to 100% in experiment [1] and 0% in experiment [2].
The corresponding values for `Oc1nc(-c2ccccn2)nc2c(Br)c(-c3ccccc3)sc12` [drawing 2380] are 1 to 25% and 0%.
The corresponding values for `O=C(CN1CCN(c2nc(-c3ccccn3)nc3scc(-c4ccccc4)c23)CC1)N1CCCCC1` [drawing 2148] are 26 to 50% and 1 to 25%.
As for `Cc1ccc(-c2ccc(Oc3ccc(C(F)(F)F)cn3)c(C)c2)cc1` [drawing 2056], the inhibition at 30 µM in experiment [1] is 0%; in experiment [2] it was 1 to 25%.
The corresponding values for `NC(=O)C1CCN(c2nc(-c3ccccn3)nc3scc(-c4ccccc4)c23)CC1` [drawing 2164] are 1 to 25% and 1 to 25%.
The corresponding values for `COCCNc1nc(-c2nccn2C)nc2sc(-c3ccc(OC)cc3)c(-c3ccccc3)c12` [drawing 2424] are 76 to 100% and 51 to 75%.
For `COc1ccc(CCC(=O)Nc2nnc(-c3ccccn3)[nH]2)cc1F` [drawing 1929], the inhibition at 30 µM in experiment [1] was in the range of 1 to 25%; in experiment [2], 26 to 50%.
The corresponding values for `N#Cc1ncn(-c2nc(-c3ccccn3)nc3sc(-c4ccccc4)cc23)n1` [drawing 2132] are 76 to 100% and 76 to 100%.
The corresponding values for `COc1cnc(CNC(=O)c2csc3c(O)nc(-c4ccccn4)nc23)[nH]c1=O` [drawing 2347] are 1 to 25% and 0%.
For the compound `Cn1ccnc1-c1nc(O)c2scc(-c3cccc(Cl)c3)c2n1` [drawing 2444], the inhibition at 30 µM was 51 to 75% in experiment [1] and 0% in experiment [2].
The corresponding values for `COc1nc(-c2ccccn2)nc2c1c(-c1ccccc1)nn2-c1ccccn1` [drawing 2367] are 76 to 100% and 76 to 100%.
As for `O=C(c1csc2c(O)nc(-c3ccccn3)nc12)N1CCc2ccccc2CC1` [drawing 2116], the inhibition at 30 µM was 51 to 75% in experiment [1] and 0% in experiment [2].
The corresponding values for `Cc1ccc(CN(Cc2ccco2)C(=O)c2oc3ccccc3c2C)cc1` [drawing 2049] are 1 to 25% and 0%.
The corresponding values for `COc1ccc(-c2csc3c(O)nc(-c4nccn4C)nc23)cn1` [drawing 2440] are 76 to 100% and 76 to 100%.
The corresponding values for `O=C(COc1ccccc1)N1CCCc2c(O)nc(-c3ccccn3)nc21` [drawing 2071] are 76 to 100% and 1 to 25%.
Take `CCC(C)c1csc2c(OC)nc(-c3ccccn3)nc12` (stereo not shown) [drawing 2310]: the inhibition at 30 µM in experiment [1] was 26 to 50%; in experiment [2] it was 1 to 25%.
The corresponding values for `O=C(Cc1c[nH]c2ccccc12)Nc1nnc(-c2ccccn2)[nH]1` [drawing 1931] are 26 to 50% and 1 to 25%.
The corresponding values for `O=C(Nc1nnc(-c2ccccn2)[nH]1)c1cccc(N2CCCS2(=O)=O)c1` [drawing 1989] are 1 to 25% and 1 to 25%.
The corresponding values for `Cc1sc2c(O)nc(-c3ccccn3)nc2c1-c1ccncc1` [drawing 2331] are 26 to 50% and 0%.
Turning to `Oc1nc(-c2ccccn2)nc2c(-c3ccsc3)csc12` [drawing 2267], the inhibition at 30 µM in experiment [1] and in experiment [2] was 76 to 100% in each case.
Regarding `CC(C)Oc1ccc(-c2c(-c3ccccc3)sc3c(O)nc(-c4nccn4C)nc23)cc1F` [drawing 2438], the inhibition at 30 µM is 1 to 25% in experiment [1] and 0% in experiment [2].
The corresponding values for `Oc1nc(-c2ccccn2)nc2c(CC3CNC3)csc12` [drawing 2346] are 76 to 100% and 1 to 25%.
The corresponding values for `O=C(Nc1nnc(-c2ccccn2)[nH]1)C1CCCN(c2cnccn2)C1` (stereo not shown) [drawing 1979] are 1 to 25% and 1 to 25%.
The corresponding values for `O=C(c1csc2c(O)nc(-c3ccccn3)nc12)N1CCN(Cc2ccccc2)CC1` [drawing 2187] are 76 to 100% and 0%.
`O=C(NCCc1cncs1)c1csc2nc(-c3ccccn3)nc(N3CCOCC3)c12` [drawing 2176]: the inhibition at 30 µM in experiment [1] is 1 to 25%; in experiment [2], 0%.
As for `COCCNc1nc(-c2nccn2C)nc2sc(-c3cccc(OC)c3)c(-c3ccccc3)c12` [drawing 2413], the inhibition at 30 µM in experiment [1] and in experiment [2] was 76 to 100% throughout.
`CS(=O)(=O)N1CCCc2cc(C(=O)Nc3nnc(-c4ccccn4)[nH]3)ccc21` [drawing 2002]: the inhibition at 30 µM in experiment [1] lay within 26 to 50%; in experiment [2], 1 to 25%.
The corresponding values for `CCN(CC)S(=O)(=O)c1ccc(NCCOC)c(C(=O)NCCSCc2ccc(C)cc2)c1` [drawing 2066] are 26 to 50% and 26 to 50%.
The corresponding values for `CC(O)CNc1nc(-c2ccccn2)nc2scc(-c3ccccc3)c12` (stereo not shown) [drawing 2042] are 26 to 50% and 1 to 25%.
`Nc1nc(-c2ccccn2)nc(C(=O)NCCc2ccncc2)c1Oc1ccccc1` [drawing 2378]: the inhibition at 30 µM in experiment [1] and in experiment [2] was 0% in each case.
`COc1ccc(-c2csc3[nH]c(-c4ccccn4)nc(=O)c23)cc1` [drawing 2023]: the inhibition at 30 µM was in the range of 26 to 50% in experiment [1] and 1 to 25% in experiment [2].
The corresponding values for `CC(Oc1ccccc1Cl)C(=O)Nc1nnc(-c2ccccn2)[nH]1` (stereo not shown) [drawing 1937] are 26 to 50% and 1 to 25%.
The corresponding values for `O=C(c1csc2c(O)nc(-c3ccccn3)nc12)N1CCN(c2ccc(F)cc2)CC1` [drawing 2180] are 26 to 50% and 0%.
The corresponding values for `COc1ccccc1-c1csc2c(O)nc(-c3ccccn3)nc12` [drawing 2262] are 76 to 100% and 51 to 75%.
As for `Cc1c(Br)sc2c(O)nc(-c3ccccn3)nc12` [drawing 2312], the results for the inhibition at 30 µM in experiment [1] and in experiment [2] were 76 to 100% and 51 to 75%, respectively.
The corresponding values for `COc1ccc(CCN(C)C(=O)c2csc3nc(-c4ccccn4)nc(N4CCOCC4)c23)cn1` [drawing 2173] are 26 to 50% and 0%.
The corresponding values for `O=C(c1csc2c(O)nc(-c3ccccn3)nc12)N1CCC(N2CCCC2=O)CC1` [drawing 2106] are 1 to 25% and 26 to 50%.
